These results are taken from US20240368174A1, “Antiviral Heterocyclic Compounds” (Enanta Pharmaceuticals, Inc., priority 2023, published 2024).

The assay deals with HMPV clinical isolate A2 strain TN 94-49. The assay can be described thus: HMPV antiviral assay, Method 1 (LLC-MK2 cells, ATP-Lite). The class given is cell-based. The settings on record: human metapneumovirus, hMPV A2 TN/94-49, LLC-MK2 cells. As to the method:
In vitro HMPV antiviral activity was evaluated using the clinical isolate A2 strain TN 94-49 (obtained from Dr. John Williams, Vanderbilt University, Tennessee) and LLC-MK2 cells (ATCC #CCL-7), an immortalized kidney epithelial cell line from Macaca mulatta. Compounds were resuspended in dimethyl sulfoxide (DMSO) at 10 mM, serially diluted and added to a 384-well source plate. Subsequently, the compounds were diluted and transferred onto 384-well assay plates using the Echo-650 automated liquid handling system (Beckman Coulter, Indiana). The test compounds were assessed in duplicate at a top concentration of 2 μM followed by 2.5-fold serial dilutions to give a total of 10 concentration points. DMSO control wells were also included on the assay plates and were either infected or not, acting as positive and negative controls. A2 TN 94-49 virus infections were performed in-suspension with LLC-MK2 cells. The cells were washed twice with PBS and removed from the cell-culture flask with 0.25% trypsin-EDTA (Thermo Fisher Scientific, MA). The trypsin-EDTA was inactivated by resuspending in 2% fetal bovine serum (FBS) and OptiMEM (ThermoFisher Scientific, MA) containing 1% penicillin-streptomycin. Cells were pelleted by centrifuging for 5 minutes at 800 rpm, the supernatant was removed, and cells were re-suspended and washed in PBS plus 100 μg/mL CaCl2). This step was performed twice. Cells were then re-suspended in serum-free (SF)-OptiMEM containing 4 μg/mL TPCK-Trypsin (Sigma Aldrich, MO), 1% penicillin-streptomycin (ThermoFisher Scientific, MA) and 100 μg/mL CaCl2). Cells were counted and seeded at a density of 5,000 cells/well, 12.5 μL/well. Virus infections were done at a multiplicity of infection (MOI) of 0.005 with 12.5 μL added per well. Virus infections were performed in infection media which contained SF-OptiMEM, 100 μg/mL CaCl2) and 1% penicillin-streptomycin. HMPV viral stocks are suspended in infection media+5% glycerol, thus an equal volume of infection media+5% glycerol was added to uninfected wells to equalize the final % glycerol across all wells of the assay plate. The final concentration of TPCK-trypsin was 2 μg/mL. The assay plates were incubated at 37° C., 5% CO2 for 7 days. After 7 days incubation, 12.5 μL of ATP-Lite (PerkinElmer, MA) was added to each well and the raw luminescence values were determined using the Envision 2104 (Perkin Elmer, MA). The average of the raw luminescence values for the cells and virus only positive control wells was subtracted from all conditions tested and the percent cell health was determined by dividing these values by the average of the cells only negative control wells. EC50 values were then calculated by non-linear regression using a four-parameter curve logistic equation. The curve fit model employed was XLFit Dose Response One Site Model 200: y=(A+(B/(1+((x/C)^D)))), where A is the minimum y value, B is the maximum y value, C is the log EC50 value, and D is the slope factor.

What is called EC50 is the midpoint of the concentration-response curve. In turn, `COc1cc(C(=O)NCC(O)(c2csc(Cl)c2)c2cc3c(c(-c4cc(Cl)c(F)cc4F)n2)OC[C@]3(C)C(N)=O)cc2cn(C3CC3)nc12` (stereo partly shown) [Example 471] showed an EC50 of less than 500 nM.

The molecule `C[C@]1(C(N)=O)COc2c1cc([C@@](O)(CNC(=O)c1cc(Cl)c3nn(C4CC4)cc3c1)C1CC1)nc2-c1ccc2c(c1Cl)OC(F)(F)O2` [Example 35] showed an EC50 of less than 500 nM.

On to `CCNC(=O)[C@@]1(C)COc2c1cc([C@@](O)(CNC(=O)c1cc(OC)c3nn(C4CC4)cc3c1)c1ccccc1)nc2-c1cc(Cl)c(F)cc1F` [Example 142], for which the EC50 is less than 500 nM.

In turn, `COc1cc(C(=O)NC[C@@](O)(c2ccccc2)c2cc3c(c(-c4ccc5c(c4Cl)OC(F)(F)O5)n2)OC[C@]3(C)C(N)=O)cc2cn(C3CC3)nc12` [Example 251] came in with an EC50 of less than 500 nM.

`COc1cc(C(=O)NC[C@@](O)(c2ccsc2)c2cc3c(c(-c4cc(Cl)c(F)cc4F)n2)OC[C@]3(C)C(N)=O)cc2cn(C(F)F)nc12` [Example 174]: the half-maximal effective concentration (EC50) is less than 500 nM.

For the molecule `COc1cc(C(=O)NC[C@](O)(c2cc3c(c(-c4cc(C)cc(F)c4F)n2)OC[C@]3(C)C(N)=O)C2CC2)cc2cn(C3CC3)nc12` [Example 49], the EC50 was greater than 500 nM.

As for `COc1cc(C(=O)NCC(O)(c2cc3c(c(-c4cc(Cl)c(F)cc4F)n2)OC[C@]3(C)C(N)=O)c2cc3ccccc3s2)cc2cn(C3CC3)nc12` (stereo partly shown) [Example 469], the EC50 was greater than 500 nM.

On to `[2H]C([2H])([2H])c1nc2c(OC(F)F)cc(C(=O)NC[C@](O)(c3cc4c(c(-c5cc(Cl)c(F)cc5F)n3)OC[C@]4(C)C(N)=O)C3CC3)cc2cc1Br` [Example 11], for which the EC50 is greater than 500 nM.

For the molecule `[2H]C([2H])([2H])c1nc2c(OC)cc(C(=O)NC[C@](O)(c3cc4c(c(-c5cc(F)c(F)cc5F)n3)OC[C@]4(C)C(N)=O)C3CC3)cc2cc1Br` [Example 7], the EC50 was less than 500 nM.

As to `COc1cccc([C@](O)(CNC(=O)c2cc(OC)c3nc(C)c(Cl)cc3c2)c2cc3c(c(-c4cc(Cl)c(F)cc4F)n2)OC[C@]3(C)C(N)=O)c1` [Example 164], the EC50 is less than 500 nM.

Take `COc1cc(C(=O)NC[C@](O)(c2cc3c(c(-c4cc(Cl)c(F)cc4F)n2)OC[C@]3(C)C(N)=O)c2cc(C)cs2)cc2cn(C3CC3)nc12` [Example 467]: the EC50 was less than 500 nM.

Take `[2H]C([2H])([2H])c1nc2c(OC)cc(C(=O)NC[C@@](O)(c3cccc(OC)c3)c3cc4c(c(-c5cc(Cl)c(F)cc5F)n3)OC[C@]4(C)C(N)=O)cc2s1` [Example 163]: the EC50 is less than 500 nM.

`[2H]C([2H])([2H])c1nc2c(OC)cc(C(=O)NC[C@@](O)(c3ccsc3)c3cc4c(c(-c5cc(Cl)c(F)cc5F)n3)OC[C@]4(C)C(N)=O)cc2s1` [Example 176] returned an EC50 of less than 500 nM.

Molecule `COc1cc(C(=O)NC[C@@](O)(c2ccccc2)c2cc3c(c(-c4ccc5c(c4Cl)OC(F)(F)O5)n2)OC[C@]3(C)C(N)=O)cc2cc(C3CC3)nn12` [Example 254] came in with an EC50 of less than 500 nM.

`COc1cc(C(=O)NC[C@@](O)(c2cc3c(c(-c4ccc(F)cc4O)n2)OC[C@]3(C)C(N)=O)C2CC2)cc2cn(C3CC3)nc12` [Example 64] came in with an EC50 greater than 500 nM.

In turn, `COc1cc(C(=O)NC[C@](O)(c2cc3c(c(-c4ccc(Cl)c(Cl)c4Cl)n2)OC[C@]3(C)C(N)=O)C2CC2)cc2cn(C3CC3)nc12` [Example 60] displayed an EC50 of less than 500 nM.

`COc1cc(C(=O)NC[C@@](O)(c2cccc(F)c2)c2cc3c(c(-c4cc(Cl)c(F)cc4F)n2)OC[C@]3(C)C(N)=O)cc2cn(C(F)F)nc12` [Example 134] gave an EC50 of less than 500 nM.

`[2H]C([2H])([2H])c1nc2c(OC)cc(C(=O)NC[C@@](O)(c3ccccc3)c3cc4c(c(-c5ccc(F)c(Cl)c5Cl)n3)OC[C@]4(C)C(N)=O)cc2s1` [Example 273] showed an EC50 of less than 500 nM.

With `COc1cc(C(=O)NC[C@](O)(c2cc3c(c(-c4cc(Cl)c(F)cc4F)n2)OC[C@]3(C)C(N)=O)c2cnn[nH]2)cc2cn(C3CC3)nc12` [Example 180], the EC50 was greater than 500 nM.

On to `C[C@]1(C(N)=O)COc2c1cc([C@@](O)(CNC(=O)c1cc(OC(F)F)c3nn(C4CC4)cc3c1)C1CC1)nc2-c1ccc(F)c(Cl)c1F` [Example 40], for which the EC50 was less than 500 nM.

The molecule `COc1cc(C(=O)NC[C@@](O)(c2ccccc2)c2cc3c(c(-c4cc(Cl)c(F)cc4F)n2)OC[C@]3(C)C(N)=O)cc2ccc(C)nc12` [Example 79] returned an EC50 of less than 500 nM.

For `COc1cc(C(=O)NC[C@@](O)(c2ccccc2)c2cc3c(c(-c4cc(Cl)c(F)cc4F)n2)OC[C@]3(C)C(N)=O)cc2oc(C)nc12` [Example 84], the EC50 is less than 500 nM.

The molecule `COc1cc(C(=O)NC[C@@](O)(c2ccc(F)cc2)c2cc3c(c(-c4cc(Cl)c(F)cc4F)n2)OC[C@]3(C)C(N)=O)cc2cc(Cl)c(C)nc12` [Example 17] registered an EC50 of less than 500 nM.

`COc1cc(C(=O)NC[C@@](O)(c2ccc(F)cc2)c2cc3c(c(-c4cc(Cl)c(F)cc4F)n2)OC[C@]3(C)C(N)=O)cc2cn(C(F)F)nc12` [Example 13]: the EC50 is less than 500 nM.

As to `COc1cc(C(=O)NC[C@@](O)(c2ccc(F)cc2)c2cc3c(c(-c4ccc5c(c4Cl)OC(F)(F)O5)n2)OC[C@]3(C)C(N)=O)cc2cc(C(F)(F)F)cnc12` [Example 26], the EC50 is greater than 500 nM.

`CNC(=O)[C@@]1(C)COc2c1cc([C@@](O)(CNC(=O)c1cc(OC)c3nn(C4CC4)cc3c1)c1ccccc1)nc2-c1cc(Cl)c(F)cc1F` [Example 141] had an EC50 of less than 500 nM.

`COc1cc(C(=O)NC[C@](O)(c2cc3c(c(-c4ccc(F)c(CO)c4F)n2)OC[C@]3(C)C(N)=O)C2CC2)cc2cn(C3CC3)nc12` [Example 72] came in with an EC50 greater than 500 nM.

The molecule `COc1cc(C(=O)NC[C@@](O)(c2ccccc2)c2cc3c(c(-c4cc(Cl)c(F)cc4F)n2)OC[C@]3(C)C(N)=O)cc2cc(C(F)(F)F)cnc12` [Example 83] registered an EC50 of less than 500 nM.

`COc1cc(C(=O)NC[C@](O)(c2cc3c(c(-c4ccc5ccsc5c4)n2)OC[C@]3(C)C(N)=O)C2CC2)cc2cn(C3CC3)nc12` [Example 48] registered an EC50 greater than 500 nM.

Molecule `[2H]C([2H])([2H])c1nc2ccc(C(=O)NC[C@@](O)(c3ccccc3)c3cc4c(c(-c5cc(Cl)c(F)cc5F)n3)OC[C@]4(C)C(N)=O)cc2o1` [Example 87] showed an EC50 of less than 500 nM.

As to `Cc1nc2c(OC(F)F)cc(C(=O)NC[C@@](O)(c3cccc(F)c3)c3cc4c(c(-c5cc(Cl)c(F)cc5F)n3)OC[C@]4(C)C(N)=O)cc2cc1Br` [Example 135], the EC50 is greater than 500 nM.

In turn, `COc1cc(C(=O)NC[C@@](O)(c2ccc(F)cc2)c2cc3c(c(-c4ccc(F)c(Cl)c4Cl)n2)OC[C@]3(C)C(N)=O)cc2cc(C3CC3)nn12` [Example 45] showed an EC50 of less than 500 nM.

Turning to `[2H]C([2H])([2H])c1nc2c(OC)cc(C(=O)NC[C@@](O)(c3ccc(OC)cc3)c3cc4c(c(-c5cc(Cl)c(F)cc5F)n3)OC[C@]4(C)C(N)=O)cc2s1` [Example 168], the EC50 was less than 500 nM.

Regarding `COc1cc(C(=O)NC[C@](O)(c2cc3c(c(-c4cc(Cl)cc(C)c4F)n2)OC[C@]3(C)C(N)=O)C2CC2)cc2cn(C3CC3)nc12` [Example 47], the EC50 is greater than 500 nM.

`COc1cc(F)ccc1-c1nc([C@@](O)(CNC(=O)c2cc(OC)c3nn(C4CC4)cc3c2)C2CC2)cc2c1OC[C@]2(C)C(N)=O` [Example 67] yielded an EC50 greater than 500 nM.

Regarding `COc1cc(C(=O)NC[C@](O)(c2cc3c(c(-c4cc(Cl)c(F)cc4F)n2)OC[C@]3(C)C(N)=O)c2ccccc2F)cc2cc(C3CC3)nn12` [Example 137], the EC50 is less than 500 nM.

On to `[2H]C([2H])([2H])c1nc2c(OC)cc(C(=O)NC[C@@](O)(c3ccc(F)cc3)c3cc4c(c(-c5cc(Cl)c(F)cc5F)n3)OC[C@]4(C)C(N)=O)cc2s1` [Example 16], for which the EC50 is less than 500 nM.

The molecule `Cc1nc2ccc(C(=O)NC[C@@](O)(c3ccccc3)c3cc4c(c(-c5cc(Cl)c(F)cc5F)n3)OC[C@]4(C)C(N)=O)cc2o1` [Example 86] returned an EC50 of less than 500 nM.

`COc1cc(C(=O)NC[C@@](O)(c2ccsc2)c2cc3c(c(-c4cc(Cl)c(F)cc4F)n2)OC[C@]3(C)C(N)=O)cc2cn(C3(F)CC3)nc12` [Example 175] yielded an EC50 of less than 500 nM.

The molecule `COc1cc(C(=O)NC[C@](O)(c2cc3c(c(-c4ccc(C(F)(F)F)c(C)c4)n2)OC[C@]3(C)C(N)=O)C2CC2)cc2cn(C3CC3)nc12` [Example 55] had a 50% effective concentration (EC50) greater than 500 nM.
